Assay results taken from PubChem BioAssay (NCI).
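Growth conditions: 96-well plates. Treatment: test compound, 48 hours, 5 concentrations. Analysis: linear interpolation between bracketing concentrations; unreached endpoints set to highest concentration. GI50 = concentration required for 50% inhibition of growth. TGI: concentration producing complete growth inhibition.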

Experiments:
Experiment in all cases: growth of human tumour cells (NCI), 48 h
SW-620 colon = test system: SW-620 colon
HS 578T breast = test system: HS 578T breast
LOX IMVI melanoma = test system: LOX IMVI melanoma
EKVX NSCLC = test system: EKVX NSCLC
ACHN renal = test system: ACHN renal
K-562 leukemia = test system: K-562 leukemia
OVCAR-5 ovarian = test system: OVCAR-5 ovarian
SNB-75 CNS = test system: SNB-75 CNS

| SMILES | TGI (SW-620 colon) | TGI (HS 578T breast) | TGI (LOX IMVI melanoma) | TGI (EKVX NSCLC) | TGI (ACHN renal) | TGI (K-562 leukemia) | TGI (OVCAR-5 ovarian) | GI50 (SW-620 colon) | GI50 (HS 578T breast) | GI50 (LOX IMVI melanoma) | GI50 (ACHN renal) | GI50 (K-562 leukemia) | GI50 (OVCAR-5 ovarian) | GI50 (EKVX NSCLC) | GI50 (SNB-75 CNS) | TGI (SNB-75 CNS) |
| --- | --- | --- | --- | --- | --- | --- | --- | --- | --- | --- | --- | --- | --- | --- | --- | --- |
| Cc1nnc(N=Nc2c(O)[nH]c3ccccc23)[nH]c1=O | > 100 µM | > 100 µM | > 100 µM | > 100 µM | > 100 µM | > 100 µM | > 100 µM | – | – | – | – | – | – | – | – | – |
| Cc1ccc(S(=O)c2ccc([N+](=O)[O-])c3nonc23)cc1 (stereo not drawn) | 5 µM | 60.2 µM | 19.2 µM | – | 3.75 µM | 9.18 µM | 26.2 µM | 2.18 µM | 21.1 µM | 5.88 µM | 1.92 µM | 3.02 µM | 9.5 µM | – | – | – |
| NC(=O)c1c(NC(=O)c2cccc(C(F)(F)F)c2)sc2c1CCC(=O)C2 | 1.62 µM | > 100 µM | 2.8 µM | > 100 µM | 1.05 µM | – | 9.42 µM | 0.234 µM | 0.545 µM | 0.356 µM | 0.322 µM | 0.124 µM | 0.83 µM | 2.12 µM | 0.507 µM | 3.84 µM |
| Cc1cc([C@H](C)Nc2nccc(N3C(=O)OC[C@@H]3[C@H](C)F)n2)ncc1-c1ccnc(C(F)(F)F)c1 | > 100 µM | > 100 µM | > 100 µM | > 100 µM | > 100 µM | > 100 µM | > 100 µM | 46.6 µM | 39.2 µM | 36.5 µM | 24.7 µM | 37.1 µM | > 100 µM | 19.2 µM | 88.2 µM | > 100 µM |
| CNc1ccc(N=Nc2cccc3ncccc23)cc1 | > 100 µM | > 100 µM | > 100 µM | > 100 µM | > 100 µM | > 100 µM | > 100 µM | 37.1 µM | 24.7 µM | 22.3 µM | 20.8 µM | 19.3 µM | 0.0278 µM | 3.62 µM | 21.2 µM | > 100 µM |
| NCCNc1nc2ccccc2c2c(=O)c3cc(F)cc(Cl)c3sc12 | 3.08 µM | 3.7 µM | 3.17 µM | 3.13 µM | 2.99 µM | 1.03 µM | 3.1 µM | 1.54 µM | 1.63 µM | 1.66 µM | 1.63 µM | 0.261 µM | 1.65 µM | 1.6 µM | 1.27 µM | 2.56 µM |
| CC(=O)c1c(Nc2ccc(F)c(F)c2F)[nH]c2c(F)cc(F)cc2c1=O | 18.7 µM | 8.69 µM | 11.3 µM | > 40.4 µM | > 26.3 µM | > 100 µM | 25.4 µM | 0.346 µM | 0.293 µM | 0.333 µM | 0.296 µM | 0.347 µM | 0.552 µM | 0.303 µM | 0.289 µM | 8.52 µM |
| COc1ccc(-c2cn(-c3cc(OC)c(OC)c(OC)c3)c(=O)n2-c2ccccc2)cc1 | > 100 µM | > 100 µM | > 100 µM | > 100 µM | > 100 µM | > 100 µM | > 100 µM | > 100 µM | 53.2 µM | > 100 µM | > 100 µM | > 100 µM | > 100 µM | > 100 µM | 30.7 µM | > 100 µM |
| COc1ccc(-c2nn(-c3cccc(Cl)c3)cc2-c2cc(-c3cccs3)no2)cc1 | 22.6 µM | 45.5 µM | 10.9 µM | 13.5 µM | > 100 µM | > 100 µM | 74.1 µM | 4.35 µM | 4.42 µM | 3.04 µM | 4.39 µM | 3.43 µM | 7.63 µM | 2.07 µM | 3.52 µM | 34.7 µM |
| COc1ccc(-c2nn(-c3cccc(Cl)c3)cc2/C=C2\C(=N)N(c3ccccc3)N=C2N)cc1 | 20.7 µM | > 100 µM | 4.58 µM | 60.5 µM | 42.6 µM | 32.6 µM | > 65.9 µM | 0.399 µM | 19.6 µM | 0.337 µM | 0.95 µM | 0.352 µM | 2.08 µM | 1.5 µM | 18.8 µM | 98.6 µM |
| C=C[C@@]1(C)CC(=O)[C@]2(O)[C@@]3(C)[C@@H](O)CCC(C)(C)[C@@H]3[C@H](O)[C@@H](OC(C)=O)[C@@]2(C)O1 | > 100 µM | > 100 µM | > 100 µM | > 100 µM | > 100 µM | > 100 µM | > 100 µM | – | – | – | – | – | – | – | – | > 100 µM |
| CC[C@H](C)[C@H](NC(=O)N[C@@H](C)c1ccccc1)C(=O)N(C)[C@H](C[C@@H](OC(C)=O)c1nc(C(=O)N[C@@H](Cc2ccccc2)C[C@H](C)C(=O)OC)cs1)C(C)C | > 100 µM | 56.7 µM | > 100 µM | > 100 µM | > 100 µM | – | > 100 µM | 26.4 µM | 15.9 µM | 30.9 µM | 29.3 µM | – | 27.9 µM | 37.5 µM | 13.8 µM | > 100 µM |
| CCCCCCCCCCCCCCCCCCNC(=O)[C@H]1CSC(c2ccc(F)c(OC)c2)N1 (stereo partly drawn) | 1.54 µM | 2.97 µM | 2.07 µM | 1.6 µM | > 50 µM | 2.45 µM | 1.91 µM | 0.5 µM | 1.24 µM | 0.788 µM | 2.71 µM | 0.774 µM | 1 µM | 0.813 µM | 0.87 µM | 1.63 µM |
| COc1cc(/C=C2\C(=O)Nc3ccc(Br)cc32)cc(OC)c1OC | > 100 µM | > 78.7 µM | > 100 µM | > 100 µM | > 100 µM | > 100 µM | > 100 µM | 3.74 µM | 2.94 µM | 10.6 µM | 31.9 µM | 1.11 µM | 30.6 µM | 14.3 µM | 4.01 µM | 14.5 µM |
| Cc1nc2cc(Nc3nc(Nc4ccc(F)cc4)nc(-c4ccc(Cl)cc4)n3)ccc2n1Cc1ccccc1 | > 100 µM | > 100 µM | > 100 µM | – | > 100 µM | > 100 µM | > 100 µM | 7.55 µM | 12.2 µM | 12.6 µM | 3.89 µM | 5.13 µM | 5.76 µM | – | 2.2 µM | 10.5 µM |
| COc1ccc2nc3cc(Cl)ccc3c(Nc3ccc(O)c(CN4CCCC4)c3)c2c1 | 6.19 µM | – | 3.47 µM | 14.4 µM | 3.18 µM | 6.44 µM | 7.62 µM | 1.94 µM | – | 1.73 µM | 1.74 µM | 1.99 µM | 2.89 µM | 3.18 µM | 1.99 µM | 3.79 µM |
